# Experimental data from article PMC6704710, “Preclinical evaluation of 3D185, a novel potent inhibitor of FGFR1/2/3 and CSF-1R, in FGFR-dependent and macrophage-dominant cancer models” (Journal of Experimental & Clinical Cancer Research : CR, 2019).
# Tests used:
# Assay in all cases: Eurofins kinase panel
# Type in all cases: biochemical
# Settings in all cases: read-out: Inhibition rate (%)
# DCAMKL2(h) = target: T1, DCAMKL2(h) (Homo sapiens, UniProt Q8N568)
# T1 construct: purchased Eurofins (KinaseProfiler)
# T1 sequence (Q8N568 1-766): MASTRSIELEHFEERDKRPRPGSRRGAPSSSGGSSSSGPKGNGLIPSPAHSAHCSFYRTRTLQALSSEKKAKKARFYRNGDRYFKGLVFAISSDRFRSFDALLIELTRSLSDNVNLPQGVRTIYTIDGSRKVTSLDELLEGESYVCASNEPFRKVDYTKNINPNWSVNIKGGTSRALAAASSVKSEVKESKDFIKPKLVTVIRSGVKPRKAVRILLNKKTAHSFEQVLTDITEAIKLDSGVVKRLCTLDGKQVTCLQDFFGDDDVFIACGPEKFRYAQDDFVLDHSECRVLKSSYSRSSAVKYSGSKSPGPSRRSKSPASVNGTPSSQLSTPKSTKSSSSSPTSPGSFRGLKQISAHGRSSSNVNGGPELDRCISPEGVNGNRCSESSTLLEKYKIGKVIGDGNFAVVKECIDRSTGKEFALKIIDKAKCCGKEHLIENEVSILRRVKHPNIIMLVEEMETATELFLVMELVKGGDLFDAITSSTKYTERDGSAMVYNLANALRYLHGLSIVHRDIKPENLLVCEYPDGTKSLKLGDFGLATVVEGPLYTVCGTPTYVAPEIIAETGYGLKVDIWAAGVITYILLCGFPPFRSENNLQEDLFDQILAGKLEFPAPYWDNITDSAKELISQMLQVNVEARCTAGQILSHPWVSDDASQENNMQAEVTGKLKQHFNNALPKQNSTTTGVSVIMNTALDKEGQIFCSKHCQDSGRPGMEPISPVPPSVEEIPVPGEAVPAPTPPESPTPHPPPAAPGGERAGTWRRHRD
# DYRK1B(h) = target: T2, DYRK1B(h) (Homo sapiens, UniProt Q9Y463)
# T2 construct: purchased Eurofins (KinaseProfiler)
# T2 sequence (Q9Y463 whole entry): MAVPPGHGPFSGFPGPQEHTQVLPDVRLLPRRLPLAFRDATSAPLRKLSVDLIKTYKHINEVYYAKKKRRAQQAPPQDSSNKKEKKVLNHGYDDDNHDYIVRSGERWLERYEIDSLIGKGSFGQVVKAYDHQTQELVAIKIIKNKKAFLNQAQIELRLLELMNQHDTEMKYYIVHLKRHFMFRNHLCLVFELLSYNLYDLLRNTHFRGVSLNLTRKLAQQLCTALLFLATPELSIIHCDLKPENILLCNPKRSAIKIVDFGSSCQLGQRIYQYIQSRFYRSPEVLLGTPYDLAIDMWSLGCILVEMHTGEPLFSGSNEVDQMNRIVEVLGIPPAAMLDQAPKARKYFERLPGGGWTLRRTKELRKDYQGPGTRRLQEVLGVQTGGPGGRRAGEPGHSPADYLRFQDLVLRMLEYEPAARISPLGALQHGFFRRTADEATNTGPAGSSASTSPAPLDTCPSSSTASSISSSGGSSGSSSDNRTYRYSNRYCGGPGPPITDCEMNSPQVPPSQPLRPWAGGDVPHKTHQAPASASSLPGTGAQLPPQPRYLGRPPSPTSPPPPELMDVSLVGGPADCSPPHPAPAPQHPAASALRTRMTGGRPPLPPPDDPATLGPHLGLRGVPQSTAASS
# MLCK(h) = target: T3, MLCK(h) (Homo sapiens, UniProt Q15746)
# T3 construct: purchased Eurofins (KinaseProfiler)
# NEK9(h) = target: T4, NEK9(h) (Homo sapiens, UniProt Q8TD19)
# T4 construct: purchased Eurofins (KinaseProfiler)
# T4 sequence (Q8TD19 1-979): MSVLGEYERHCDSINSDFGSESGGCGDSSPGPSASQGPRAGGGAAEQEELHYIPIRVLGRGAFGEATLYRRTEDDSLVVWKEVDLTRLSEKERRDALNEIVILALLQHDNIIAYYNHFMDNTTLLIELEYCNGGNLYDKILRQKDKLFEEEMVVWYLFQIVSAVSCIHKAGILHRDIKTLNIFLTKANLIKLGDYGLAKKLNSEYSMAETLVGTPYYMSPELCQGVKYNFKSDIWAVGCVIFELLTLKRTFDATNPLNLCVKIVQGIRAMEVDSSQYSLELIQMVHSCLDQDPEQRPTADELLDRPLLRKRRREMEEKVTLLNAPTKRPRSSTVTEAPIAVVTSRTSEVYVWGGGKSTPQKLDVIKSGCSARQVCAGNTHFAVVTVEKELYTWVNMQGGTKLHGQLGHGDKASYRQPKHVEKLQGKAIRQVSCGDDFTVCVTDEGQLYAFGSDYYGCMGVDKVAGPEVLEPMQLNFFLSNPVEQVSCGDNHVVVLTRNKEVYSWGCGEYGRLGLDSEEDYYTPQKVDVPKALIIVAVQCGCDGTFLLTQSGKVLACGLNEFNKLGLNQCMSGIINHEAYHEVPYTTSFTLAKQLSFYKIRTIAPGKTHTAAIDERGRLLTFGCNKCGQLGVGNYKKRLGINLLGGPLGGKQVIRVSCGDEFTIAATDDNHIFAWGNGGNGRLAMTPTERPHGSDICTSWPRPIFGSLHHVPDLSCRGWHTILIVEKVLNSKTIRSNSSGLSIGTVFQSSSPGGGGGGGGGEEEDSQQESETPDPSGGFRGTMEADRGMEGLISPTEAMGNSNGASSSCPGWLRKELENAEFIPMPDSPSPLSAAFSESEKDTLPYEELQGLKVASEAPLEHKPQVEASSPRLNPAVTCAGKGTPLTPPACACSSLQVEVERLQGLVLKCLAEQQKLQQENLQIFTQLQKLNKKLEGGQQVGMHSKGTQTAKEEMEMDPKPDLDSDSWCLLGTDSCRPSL
# PAK5(h) = target: T5, PAK5(h) (Homo sapiens, UniProt Q9P286)
# T5 construct: purchased Eurofins (KinaseProfiler)
# T5 sequence (Q9P286 whole entry): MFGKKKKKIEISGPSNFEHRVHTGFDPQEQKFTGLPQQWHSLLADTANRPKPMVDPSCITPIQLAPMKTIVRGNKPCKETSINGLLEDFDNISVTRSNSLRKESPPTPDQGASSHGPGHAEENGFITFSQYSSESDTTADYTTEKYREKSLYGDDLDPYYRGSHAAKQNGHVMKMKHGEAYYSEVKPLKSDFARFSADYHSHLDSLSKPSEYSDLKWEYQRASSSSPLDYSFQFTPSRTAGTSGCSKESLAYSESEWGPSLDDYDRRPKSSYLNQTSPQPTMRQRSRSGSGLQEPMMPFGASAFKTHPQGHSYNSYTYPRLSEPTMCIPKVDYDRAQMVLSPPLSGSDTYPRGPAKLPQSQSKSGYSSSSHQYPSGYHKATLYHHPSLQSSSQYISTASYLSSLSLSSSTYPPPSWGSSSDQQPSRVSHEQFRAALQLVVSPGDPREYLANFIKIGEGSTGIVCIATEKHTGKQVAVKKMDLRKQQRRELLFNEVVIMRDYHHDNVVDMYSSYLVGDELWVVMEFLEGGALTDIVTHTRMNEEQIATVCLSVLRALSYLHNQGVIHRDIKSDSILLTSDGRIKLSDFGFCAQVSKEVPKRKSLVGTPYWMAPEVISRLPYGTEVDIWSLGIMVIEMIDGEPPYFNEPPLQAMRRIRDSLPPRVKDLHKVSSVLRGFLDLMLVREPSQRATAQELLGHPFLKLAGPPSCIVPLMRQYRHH
# [1] = target: T6, PI3 Kinase (p110α(E545K)/p85α)(h) (Homo sapiens, UniProt P42336, E545K)
# T6 construct: purchased Eurofins (KinaseProfiler)
# PhKγ1(h) = target: T7, PhKγ1(h) (Homo sapiens, UniProt Q16816)
# T7 construct: purchased Eurofins (KinaseProfiler)
# T7 sequence (Q16816 whole entry): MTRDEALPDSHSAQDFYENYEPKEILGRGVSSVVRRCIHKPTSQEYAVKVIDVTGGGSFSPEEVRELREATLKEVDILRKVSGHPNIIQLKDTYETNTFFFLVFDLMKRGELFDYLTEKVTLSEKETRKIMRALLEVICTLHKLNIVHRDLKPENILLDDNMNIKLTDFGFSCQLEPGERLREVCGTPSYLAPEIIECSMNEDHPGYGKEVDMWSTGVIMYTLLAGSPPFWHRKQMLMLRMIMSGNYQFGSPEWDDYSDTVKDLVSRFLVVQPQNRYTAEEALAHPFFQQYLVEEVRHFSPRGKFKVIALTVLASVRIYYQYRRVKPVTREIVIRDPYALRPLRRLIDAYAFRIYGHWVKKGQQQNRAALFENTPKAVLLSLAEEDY
# TAF1L(h) = target: T8, TAF1L(h) (Homo sapiens, UniProt Q8IZX4)
# T8 construct: purchased Eurofins (KinaseProfiler)
# T8 sequence (Q8IZX4 whole entry): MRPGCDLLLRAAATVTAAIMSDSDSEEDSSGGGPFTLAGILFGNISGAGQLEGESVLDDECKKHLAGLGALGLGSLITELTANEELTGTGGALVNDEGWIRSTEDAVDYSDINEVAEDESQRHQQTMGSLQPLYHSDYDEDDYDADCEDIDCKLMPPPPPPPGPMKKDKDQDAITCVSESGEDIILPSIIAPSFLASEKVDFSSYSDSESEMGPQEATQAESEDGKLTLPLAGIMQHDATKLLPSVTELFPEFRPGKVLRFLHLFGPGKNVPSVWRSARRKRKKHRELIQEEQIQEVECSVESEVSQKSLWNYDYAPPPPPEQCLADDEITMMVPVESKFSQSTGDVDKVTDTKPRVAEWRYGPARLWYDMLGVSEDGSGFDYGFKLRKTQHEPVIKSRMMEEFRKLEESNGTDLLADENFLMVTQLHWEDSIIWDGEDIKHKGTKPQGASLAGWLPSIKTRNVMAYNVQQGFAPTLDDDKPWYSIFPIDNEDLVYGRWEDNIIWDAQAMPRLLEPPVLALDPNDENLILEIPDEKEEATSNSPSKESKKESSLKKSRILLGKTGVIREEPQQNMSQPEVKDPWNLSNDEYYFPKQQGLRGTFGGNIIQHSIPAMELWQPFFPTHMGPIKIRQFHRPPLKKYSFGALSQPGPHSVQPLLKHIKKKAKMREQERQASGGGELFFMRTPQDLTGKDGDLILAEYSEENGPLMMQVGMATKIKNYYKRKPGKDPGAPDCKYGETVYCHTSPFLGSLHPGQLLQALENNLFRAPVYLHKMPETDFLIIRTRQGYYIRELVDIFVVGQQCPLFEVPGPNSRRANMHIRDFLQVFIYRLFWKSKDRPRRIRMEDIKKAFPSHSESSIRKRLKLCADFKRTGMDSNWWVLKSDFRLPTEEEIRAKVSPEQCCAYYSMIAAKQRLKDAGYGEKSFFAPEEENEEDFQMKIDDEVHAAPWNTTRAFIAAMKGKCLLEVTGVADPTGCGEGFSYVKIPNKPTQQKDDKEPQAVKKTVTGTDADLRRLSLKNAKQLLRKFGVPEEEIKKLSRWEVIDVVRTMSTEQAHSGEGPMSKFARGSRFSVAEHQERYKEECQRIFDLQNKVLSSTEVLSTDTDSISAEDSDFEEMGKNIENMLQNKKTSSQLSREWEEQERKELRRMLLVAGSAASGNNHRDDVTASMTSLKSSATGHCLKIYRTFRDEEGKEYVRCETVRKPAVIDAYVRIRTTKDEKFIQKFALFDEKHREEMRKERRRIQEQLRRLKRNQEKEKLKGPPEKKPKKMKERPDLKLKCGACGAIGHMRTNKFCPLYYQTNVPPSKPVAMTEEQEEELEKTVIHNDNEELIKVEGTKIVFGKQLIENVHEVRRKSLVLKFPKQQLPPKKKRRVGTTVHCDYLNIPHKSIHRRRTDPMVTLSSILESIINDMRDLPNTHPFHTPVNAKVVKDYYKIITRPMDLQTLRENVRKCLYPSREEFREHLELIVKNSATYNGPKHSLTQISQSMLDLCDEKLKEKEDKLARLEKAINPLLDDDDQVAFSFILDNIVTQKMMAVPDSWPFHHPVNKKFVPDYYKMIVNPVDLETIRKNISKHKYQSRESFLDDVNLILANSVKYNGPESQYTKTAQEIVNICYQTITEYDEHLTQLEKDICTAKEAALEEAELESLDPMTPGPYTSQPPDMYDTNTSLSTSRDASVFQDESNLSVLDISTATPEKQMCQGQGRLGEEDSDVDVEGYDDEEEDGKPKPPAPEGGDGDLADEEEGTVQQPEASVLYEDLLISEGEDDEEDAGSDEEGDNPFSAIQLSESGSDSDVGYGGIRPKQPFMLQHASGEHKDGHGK
# TLK2(h) = target: T9, TLK2(h) (Homo sapiens, UniProt Q86UE8)
# T9 construct: purchased Eurofins (KinaseProfiler)
# T9 sequence (Q86UE8 whole entry): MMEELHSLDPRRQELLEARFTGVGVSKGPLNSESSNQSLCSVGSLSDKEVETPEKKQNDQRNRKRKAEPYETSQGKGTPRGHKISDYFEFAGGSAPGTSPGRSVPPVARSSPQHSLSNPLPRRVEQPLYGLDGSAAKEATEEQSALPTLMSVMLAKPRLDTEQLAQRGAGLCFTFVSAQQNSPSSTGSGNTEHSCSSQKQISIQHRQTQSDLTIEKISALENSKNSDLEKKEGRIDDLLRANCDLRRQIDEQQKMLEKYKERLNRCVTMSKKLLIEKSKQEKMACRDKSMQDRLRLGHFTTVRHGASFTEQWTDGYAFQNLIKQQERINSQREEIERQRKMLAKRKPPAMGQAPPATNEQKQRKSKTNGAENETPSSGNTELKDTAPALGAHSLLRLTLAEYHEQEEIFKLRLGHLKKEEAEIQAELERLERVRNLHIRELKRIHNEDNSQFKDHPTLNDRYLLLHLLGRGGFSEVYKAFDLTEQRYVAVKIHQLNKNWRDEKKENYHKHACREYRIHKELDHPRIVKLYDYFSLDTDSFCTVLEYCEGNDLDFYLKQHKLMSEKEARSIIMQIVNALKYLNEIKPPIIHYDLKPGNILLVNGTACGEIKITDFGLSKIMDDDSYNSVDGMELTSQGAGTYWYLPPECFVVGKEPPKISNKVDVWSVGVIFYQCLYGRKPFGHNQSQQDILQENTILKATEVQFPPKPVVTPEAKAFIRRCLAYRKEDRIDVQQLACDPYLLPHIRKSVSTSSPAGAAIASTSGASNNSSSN
smiles,measurement,setting,value
COc1cc(OC)c(Cl)c(-c2ccc3c(NC(=O)c4ccc(N5CCNC(C)(C)C5)cc4)n[nH]c3n2)c1Cl [3D185],inhibition at 0.01 µM,DCAMKL2(h); 10 nM,8%
same,inhibition at 0.1 µM,DCAMKL2(h); 100 nM,18%
same,inhibition at 1 µM,DCAMKL2(h); 1000 nM,28%
same,inhibition at 0.01 µM,DYRK1B(h); 10 nM,12%
same,inhibition at 0.1 µM,DYRK1B(h); 100 nM,3%
same,inhibition at 1 µM,DYRK1B(h); 1000 nM,3%
same,inhibition at 0.01 µM,MLCK(h); 10 nM,5%
same,inhibition at 0.1 µM,MLCK(h); 100 nM,-1%
same,inhibition at 1 µM,MLCK(h); 1000 nM,11%
same,inhibition at 0.01 µM,NEK9(h); 10 nM,-12%
same,inhibition at 0.1 µM,NEK9(h); 100 nM,-6%
same,inhibition at 1 µM,NEK9(h); 1000 nM,14%
same,inhibition at 0.01 µM,PAK5(h); 10 nM,-11%
same,inhibition at 0.1 µM,PAK5(h); 100 nM,-2%
same,inhibition at 1 µM,PAK5(h); 1000 nM,5%
same,inhibition at 0.01 µM,[1]; 10 nM,-2%
same,inhibition at 0.1 µM,[1]; 100 nM,-2%
same,inhibition at 1 µM,[1]; 1000 nM,2%
same,inhibition at 0.01 µM,PhKγ1(h); 10 nM,-1%
same,inhibition at 0.1 µM,PhKγ1(h); 100 nM,-9%
same,inhibition at 1 µM,PhKγ1(h); 1000 nM,-12%
same,inhibition at 0.01 µM,TAF1L(h); 10 nM,-4%
same,inhibition at 0.1 µM,TAF1L(h); 100 nM,-9%
same,inhibition at 1 µM,TAF1L(h); 1000 nM,-9%
same,inhibition at 0.01 µM,TLK2(h); 10 nM,0%
same,inhibition at 0.1 µM,TLK2(h); 100 nM,-1%
same,inhibition at 1 µM,TLK2(h); 1000 nM,-1%
